Measured values: article PMC8151276, “An Integrated Approach toward NanoBRET Tracers for Analysis of GPCR Ligand Engagement” (Molecules, 2021)

Tests used:
Format in all cases: binding
C3AR1 = target: T1, C3AR1 (Homo sapiens, UniProt Q16581); test: NanoBRET screen HiBiT-C3AR1 in HEK293
T1 construct: purchased Promega (in-house HiBiT-GPCR construct library, NanoBRET)
T1 sequence (Q16581 1-482): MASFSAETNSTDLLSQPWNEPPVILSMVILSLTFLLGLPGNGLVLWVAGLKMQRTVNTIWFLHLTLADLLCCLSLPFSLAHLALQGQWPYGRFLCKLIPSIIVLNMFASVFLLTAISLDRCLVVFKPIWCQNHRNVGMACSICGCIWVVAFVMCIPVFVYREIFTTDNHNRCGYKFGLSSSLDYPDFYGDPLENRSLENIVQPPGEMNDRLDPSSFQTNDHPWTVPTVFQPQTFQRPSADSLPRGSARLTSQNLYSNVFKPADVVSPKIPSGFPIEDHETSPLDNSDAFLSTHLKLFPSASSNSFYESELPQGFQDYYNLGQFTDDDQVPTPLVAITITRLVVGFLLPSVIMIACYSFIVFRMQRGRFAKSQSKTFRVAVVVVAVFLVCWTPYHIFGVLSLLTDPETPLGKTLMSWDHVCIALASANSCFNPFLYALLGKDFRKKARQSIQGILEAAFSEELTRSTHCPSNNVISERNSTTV
Procedure: (§1) Each tracer candidate was screened across the entire library of HiBiT-GPCR constructs using NanoBRET as the detection modality. As depicted in Figure 4A, the specificity of interactions was evaluated through decrease in BRET due to competitive displacement of a bound tracer by excess parental compound. Each tracer was analyzed for binding to each HiBiT-GPCR fusion in the absence and in the presence of competing parental compound. Briefly, HEK293 cells were transfected with HiBiT-GPCR constructs diluted into promoterless DNA to reduce expression and maximize translocation to the cell surface. Each tracer candidate was then screened at concentrations of 1 μM and 0.1 μM across cells expressing these fusions. Cells were treated for 1.5 h with tracer either alone or in the presence of 20 μM competing parental compound (i.e., control). BRET was measured upon addition of purified LgBiT and subsequent complementation with HiBiT genetically fused to a GPCR. The specificity of interactions was assessed through a decrease in BRET signal due to competitive displacement of the bound tracer. To further gauge the robustness of these interactions, the fold response over the control (i.e., BRETtracer/BRETcontrol) was calculated. We chose a 1.5-fold response, which translates to ≥7-fold signal over noise as the minimal threshold required to score an interaction as positive. […]. Below we highlight the screening results obtained for our exemplary fluorescent tracers based on Clozapine, Amitriptyline and AZD1283.
(§2) HiBiT-GPCR DNA constructs were diluted in 10 mM Tris pH 8 to a final concentration of 0.01 μg/μL, arrayed in 96-well plates and stored at −20 °C. For transfection, HEK293 cells were suspended in Opti-MEM (without phenol red) supplemented with 2% fetal bovine serum (Seradigm) and 100 units/mL penicillin–streptomycin (Gibco) at a final concentration of 220,000 cells/mL and dispensed into white 96-well plates at 90 μL/well. Subsequent transfections and screens were carried using an Agilent Bravo Automated Liquid Handling Platform. First, the 96-well HiBiT DNA arrays were diluted 25-fold in Opti-MEM (without serum or phenol red) to a final concentration of 0.0004 μg/μL and 20 μL of the diluted DNAs were transferred into new 96-well plates. Next, promoterless carrier DNA (1 μg/μL) was diluted 25-fold (0.04 μg/μL) and then dispensed into the diluted arrays at 20 μL/well. Following brief mixing, Viafect transfection reagent (Promega) diluted 16-fold into Opti-MEM was dispensed into the plates at 40 μL/well. After mixing by pipetting, plates were incubated for 10 min on the pipetting station deck. The DNA-transfection reagent complexes were then added to plates containing cells. To facilitate the screen, 10 μL of DNA-transfection reagent complexes were added in duplicates to the top 4 and bottom 4 rows, resulting in two identical 48-well arrays per plate. Plates with transfected cells were incubated for 18–20 h at 37 °C/5% CO2. A screen of each tracer across the entire library using two different concentrations requires duplicate plates of transfected cells. Depending on the number of tracers being screened, transfections can be scaled up using the same ratios. The next day, for each tracer, four 20× screening solutions in tracer dilution buffer (Promega) were prepared: two duplicates at final concentration of 20 μM and two duplicates at a final concentration of 2 μM. A competing unmodified compound was added to one of each duplicate at a final concentration of 400 μM. The four resulting solutions were diluted 4-fold in Opti-MEM without serum or phenol red to generate 5× solutions (5 µM and 0.5 µM tracer +/− 100 μM competing compound). To screen the library, a BioTek MultiFlo FX liquid dispenser was used to dispense 22.5 µL of tracer solution to the top 4 rows and 22.5 µL tracer + competing compound solution to the 4 bottom rows. Plates were briefly mixed on an orbital shaker and incubated for 1.5 h at room temperature. […]

CYSLTR2 = target: T2, CYSLTR2 (Homo sapiens, UniProt Q9NS75); test: NanoBRET screen HiBiT-CYSLTR2 in HEK293
T2 construct: purchased Promega (in-house HiBiT-GPCR construct library, NanoBRET)
T2 sequence (Q9NS75 1-346): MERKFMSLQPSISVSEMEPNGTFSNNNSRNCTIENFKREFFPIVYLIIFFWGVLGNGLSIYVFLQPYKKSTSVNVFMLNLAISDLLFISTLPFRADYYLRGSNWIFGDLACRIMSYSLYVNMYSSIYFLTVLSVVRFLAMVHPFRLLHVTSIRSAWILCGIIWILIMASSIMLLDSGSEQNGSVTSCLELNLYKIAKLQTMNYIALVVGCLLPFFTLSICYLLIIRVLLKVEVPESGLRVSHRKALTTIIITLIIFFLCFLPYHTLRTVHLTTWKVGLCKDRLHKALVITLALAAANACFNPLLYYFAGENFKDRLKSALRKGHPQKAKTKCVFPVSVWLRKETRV
Procedure: as §1, §2

ADORA2B = target: T3, ADORA2B (Homo sapiens, UniProt P29275); test: NanoBRET screen HiBiT-ADORA2B in HEK293
T3 construct: purchased Promega (in-house HiBiT-GPCR construct library, NanoBRET)
T3 sequence (P29275 1-332): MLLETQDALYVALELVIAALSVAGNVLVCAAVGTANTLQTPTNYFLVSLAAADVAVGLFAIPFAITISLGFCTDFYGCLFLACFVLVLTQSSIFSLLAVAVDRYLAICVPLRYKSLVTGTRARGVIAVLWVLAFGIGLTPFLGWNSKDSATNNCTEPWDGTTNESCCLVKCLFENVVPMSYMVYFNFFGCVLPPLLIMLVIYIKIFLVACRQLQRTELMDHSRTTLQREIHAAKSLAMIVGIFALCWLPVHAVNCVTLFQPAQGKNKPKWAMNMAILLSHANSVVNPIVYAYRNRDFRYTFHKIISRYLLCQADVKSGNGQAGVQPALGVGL
Procedure: as §1, §2

SMILES | NanoBRET Fold Response (C3AR1; C3AR1, tracer 0.1μM) | NanoBRET Fold Response (C3AR1; C3AR1, tracer 1μM) | NanoBRET Fold Response (CYSLTR2; CYSLTR2, tracer 0.1μM) | NanoBRET Fold Response (CYSLTR2; CYSLTR2, tracer 1μM) | NanoBRET Fold Response (ADORA2B; ADORA2B, tracer 0.1μM) | NanoBRET Fold Response (ADORA2B; ADORA2B, tracer 1μM) | also measured
COc1ccc2c(n1)c(CCNC(C)=O)cn2CCNC(=O)CCc1ccc2n1[B-](F)(F)[N+]1=C(c3ccc[nH]3)C=CC1=C2 [Azamelatonin-1-NB590] | – | – | – | – | – | – | NanoBRET Fold Response (C3AR1; 0.1μM tracer): 0.88; NanoBRET Fold Response (C3AR1; 1μM tracer): 0.98; NanoBRET Fold Response (CYSLTR2; 0.1μM tracer): 1.37; NanoBRET Fold Response (CYSLTR2; 1μM tracer): 0.46; NanoBRET Fold Response (ADORA2B; 0.1μM tracer): 0.49; NanoBRET Fold Response (ADORA2B; 1μM tracer): 0.60
CC(C)N(CC[C@H](c1ccccc1)c1cc(CCNC(=O)c2ccc(CNC(=O)CCc3ccc4n3[B-](F)(F)[N+]3=C(c5ccc[nH]5)C=CC3=C4)cc2)ccc1O)C(C)C [Tolterodine-BZ-NB590] | 1.00 | 0.99 | 1.00 | 1.08 | 0.67 | 0.73 | –
O=C(CCc1ccc2n1[B-](F)(F)[N+]1=C(c3ccc[nH]3)C=CC1=C2)NCCOCCOCCNC(=O)OCCOCCN1CCN(C2=Nc3ccccc3Sc3ccccc32)CC1 [Quetiapine-a-2-NB590] | 0.86 | 1.02 | 0.88 | 0.85 | 0.80 | 1.02 | –
Cc1cc2c(s1)Nc1ccccc1N=C2N1CCN(CCCNC(=O)CCOCCOCCOCCOCCNC(=O)CCc2ccc3n2[B-](F)(F)[N+]2=C(c4ccc[nH]4)C=CC2=C3)CC1 [Olanzapine-a-2-NB590] | 1.01 | 1.01 | 0.95 | 0.99 | 0.92 | 1.04 | –
O=C(CCc1ccc2n1[B-](F)(F)[N+]1=C(c3ccc[nH]3)C=CC1=C2)NCc1ccc(C(=O)NCCOCCOCCNCC(O)COc2cccc3ccccc23)cc1 (stereo not drawn) [Propranolol-3-NB590] | – | – | – | – | – | – | NanoBRET Fold Response (C3AR1; C3AR1, 0.1μM): 1.05; NanoBRET Fold Response (C3AR1; C3AR1, 1μM): 1.07; NanoBRET Fold Response (CYSLTR2; CYSLTR2, 0.1μM): 0.54; NanoBRET Fold Response (CYSLTR2; CYSLTR2, 1μM): 1.01; NanoBRET Fold Response (ADORA2B; ADORA2B, 0.1μM): 1.10; NanoBRET Fold Response (ADORA2B; ADORA2B, 1μM): 0.95
CN1CCN(C2=Nc3cc(Cl)ccc3N(CC(=O)NCCOCCOCCOCCOCCNC(=O)CCc3ccc4n3[B-](F)(F)[N+]3=C(c5ccc[nH]5)C=CC3=C4)c3ccccc32)CC1 [Clozapine-c-2-NB590] | – | – | – | – | – | – | NanoBRET Fold Response (C3AR1; C3AR1, 0.1μM tracer): 0.99; NanoBRET Fold Response (C3AR1; C3AR1, 1μM tracer): 1.00; NanoBRET Fold Response (CYSLTR2; CYSLTR2, 0.1μM tracer): 1.04; NanoBRET Fold Response (CYSLTR2; CYSLTR2, 1μM tracer): 1.07; NanoBRET Fold Response (ADORA2B; ADORA2B, 0.1μM tracer): 1.07; NanoBRET Fold Response (ADORA2B; ADORA2B, 1μM tracer): 0.91
O=C(CCc1ccc2n1[B-](F)(F)[N+]1=C(c3ccc[nH]3)C=CC1=C2)NCc1ccc(C(=O)NCCOCCC(=O)N[C@@H]2CC[C@@]3(O)[C@H]4Cc5ccc(O)c6c5[C@@]3(CCN4CC3CC3)[C@H]2O6)cc1 [Naltrexone-3-NB590] | 0.99 | 1.02 | 1.05 | 0.98 | 0.20 | 0.77 | –
CC(C)N(CC[C@H](c1ccccc1)c1cc(CCNC(=O)CCOCCOCCOCCOCCNC(=O)CCc2ccc3n2[B-](F)(F)[N+]2=C(c4ccc[nH]4)C=CC2=C3)ccc1O)C(C)C [Tolterodine-2-NB590] | 1.04 | 1.01 | 0.93 | 1.00 | 0.81 | 0.97 | –
COc1ccccc1N1CCN(CCCCN2C(=O)c3ccc(CNC(=O)CCOCCOCCOCCOCCNC(=O)CCc4ccc5n4[B-](F)(F)[N+]4=C(c6ccc[nH]6)C=CC4=C5)cc3C2=O)CC1 [NAN-190-2-NB590] | 1.03 | 0.96 | – | – | 0.94 | 0.64 | –
CN(CCC=C1c2ccccc2CCc2ccccc21)C(=O)CCOCCOCCOCCOCCNC(=O)CCc1ccc2n1[B-](F)(F)[N+]1=C(c3ccc[nH]3)C=CC1=C2 [Amitriptyline-e-2-NB590] | – | – | – | – | – | – | NanoBRET Fold Response (C3AR1; tracer at 1μM): 1.02
CN(C)CCC=C1c2ccccc2CCc2ccc(C(=O)NCCNC(=O)CCOCCOCCOCCOCCNC(=O)CCc3ccc4n3[B-](F)(F)[N+]3=C(c5ccc[nH]5)C=CC3=C4)cc21 [Amitriptyline-a-2-NB590] | – | – | – | – | – | – | NanoBRET Fold Response (C3AR1; tracer at 0.1μM): 0.99; NanoBRET Fold Response (C3AR1; tracer at 1μM): 1.01; NanoBRET Fold Response (ADORA2B; tracer at 0.1μM): 1.10; NanoBRET Fold Response (ADORA2B; tracer at 1μM): 0.93
